Measurements: patent US5714594A, “cDNA cloning and expression of human liver estrogen sulfotransferase” (Mayo Foundation for Medical Education and Research, priority 1994, dated 1998)

What was measured:
human liver EST [1] = target: T1, human liver EST (Homo sapiens, UniProt P49888); assay: ST activities in high-speed supernatants of COS-1 cells transfected with human liver EST cDNA; type: biochemical; parameters: expressed in transfected cells; host or cells: COS-1 cells, vector p91023(B); 100,000×g high-speed supernatant; settings: substance is the sulfate acceptor substrate; transfected COS-1 cell preparation; 1 unit = 1 nmol sulfated product per hour at 37° C.
T1 sequence (P49888 1-294): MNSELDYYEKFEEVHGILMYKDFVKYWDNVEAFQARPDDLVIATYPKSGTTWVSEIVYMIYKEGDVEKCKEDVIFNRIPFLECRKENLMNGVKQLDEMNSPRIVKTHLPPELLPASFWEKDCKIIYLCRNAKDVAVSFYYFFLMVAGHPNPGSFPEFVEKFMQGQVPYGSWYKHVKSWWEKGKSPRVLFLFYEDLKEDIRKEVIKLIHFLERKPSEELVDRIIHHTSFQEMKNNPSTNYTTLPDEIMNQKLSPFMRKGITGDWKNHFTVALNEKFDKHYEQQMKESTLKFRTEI
Procedure: B. Expression in COS-1 cells. COS-1 cells were transfected with an EST cDNA expression construct in the eukaryotic expression vector p91023(B) as well as with vector alone using the DEAE-dextran method (H. Luthman et al., Nucleic Acids Res., 11, 1295-1308 (1983)). After harvesting, cell pellets were washed with 5 ml of phosphate buffered saline (PBS) and were homogenized for 30 seconds in 2 ml of 5 mM potassium phosphate buffer, pH 6.5. The homogenates were centrifuged at 15,000×g for 15 minutes at 4° C., and supernatants were centrifuged at 100,000×g for 1 hour at 4° C. Five μl aliquots of the 100,000×g "high-speed supernatants" (HSS) were assayed for ST enzymatic activities.
A. Sulfotransferase (ST) activities. The abilities of EST and DHEA ST to catalyze sulfation of various substrates were compared.
One unit of enzyme activity represented the formation of 1 nmol of sulfated product per hour of incubation at 37° C. All assays were performed in triplicate, and values reported are averages of those three determinations. Protein concentrations were measured by the method of Bradford (Anal. Biochem., 72, 248-254 (1976)) with bovine serum albumin as a standard.

human liver EST [2] = target: T1, human liver EST; assay: DCNP inhibition of EST activity; type: biochemical; parameters: expressed in transfected cells; host or cells: COS-1 cells, vector p91023(B); 100,000×g high-speed supernatant; settings: estrone as substrate; expressed in COS-1 cells; read-out: mean DCNP concentration at which EST activity was 50% inhibited
Procedure: (§1) D. DCNP inhibition of EST activity. […] EST activity (using its preferred substrate, estrone) and DHEA ST activity (using its preferred substrate, DHEA) were 50% inhibited at very similar mean DCNP concentrations, 28±2.9 and 40±2.3 μM, respectively (FIG. 4B).

human liver DHEA ST [3] = target: T2, human liver DHEA ST (Homo sapiens, UniProt Q06520); assay: DCNP inhibition of DHEA ST activity; type: biochemical; parameters: expressed in transfected cells; host or cells: COS-1 cells; high-speed supernatant; settings: DHEA as substrate; expressed in COS-1 cells; read-out: mean DCNP concentration at which DHEA ST activity was 50% inhibited
T2 sequence (Q06520 1-285): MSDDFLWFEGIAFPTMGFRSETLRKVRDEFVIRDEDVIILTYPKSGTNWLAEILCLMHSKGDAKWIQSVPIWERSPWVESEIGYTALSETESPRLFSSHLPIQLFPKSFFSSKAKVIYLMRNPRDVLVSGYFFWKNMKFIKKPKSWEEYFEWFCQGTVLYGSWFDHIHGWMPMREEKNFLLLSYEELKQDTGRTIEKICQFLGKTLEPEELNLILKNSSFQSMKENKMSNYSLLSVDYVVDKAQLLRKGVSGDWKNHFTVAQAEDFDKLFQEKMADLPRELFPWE
Procedure: as §1

human EST = assay: Optimization of EST assay conditions and preferred substrate; type: biochemical; settings: compared with estradiol-17β, ethinyl estradiol or DHEA
Description: 1. Identification of the preferred substrate for human EST.
2. Optimization of EST assay conditions. Estrone was used as the substrate to determine optimal assay conditions and, subsequently, to characterize the properties of human EST.

human liver EST [4] = target: T1, human liver EST; settings: 150 mM NaCl; estrone as substrate; expressed in COS-1 cells
Procedure: (§2) Biochemical characterization of human EST were carried out using aliquots of HSS from COS-1 cells transfected with human liver EST cDNA. Parallel experiments were performed with human liver DHEA ST cDNA (D. M. Otterness et at., Mol. Pharmacol., 41, 865-872 (1992)) that had also been transiently expressed in COS-1 cells.
(§3) E. Effect of NaCl concentration on EST activity.

human liver DHEA ST [5] = target: T2, human liver DHEA ST; settings: 75 mM NaCl; DHEA as substrate
Procedure: as §2, §3

[6] = substrate: C[C@]12CC[C@H](O)CC1=CC[C@@H]1[C@@H]2CC[C@]2(C)C(=O)CC[C@@H]12; assay: Substrate kinetics (apparent Km) of ST activity, EST; type: biochemical, human; settings: other: substance is the substrate; EST cDNA expressed in COS-1 cells
Procedure: (§4) B. Kinetics of ST activity. Substrate kinetic studies designed to estimate apparent Km values were performed. Since human liver EST and DHEA ST can both catalyze the sulfation of steroids, these studies presented an opportunity to determine apparent Km values of the two enzymes with estrone and DHEA as substrates. Both enzyme preparations were tested with a range of estrone and DHEA concentrations. […] Apparent Km values were calculated by the method of Wilkinson (Biochem. J., 80, 324-332 (1961)) with a computer program written by Cleland (Nature, 198, 463-465 (1963)).

[7] = substrate: C[C@]12CC[C@@H]3c4ccc(O)cc4CC[C@H]3[C@@H]1CCC2=O; assay: as above; type: biochemical, human; settings: other: substance is the substrate; EST cDNA expressed in COS-1 cells
Procedure: as §4

human liver EST [8] = target: T1, human liver EST; assay: Thermal inactivation of ST activity, EST; type: physicochemical; parameters: expressed in transfected cells; host or cells: COS-1 cells, vector p91023(B); 100,000×g high-speed supernatant; settings: preincubated 15 minutes; estrone as substrate; HSS from COS-1 cells
Procedure: (§5) C. Thermal inactivation of ST activity. […] The temperatures at which 50% inactivation of EST (using its preferred substrate, estrone) and DHEA ST (using its preferred substrate, DHEA) activities occurred were 38.2±0.12 (mean±SEM) and 41.1±0.10° C., respectively (FIG. 4A). For the thermal inactivation experiment, HSS from COS-1 cells transfected with EST cDNA or DHEA ST cDNA was diluted 1:2 (v/v) with 5 mM potassium phosphate buffer, pH 6.5, preincubated at various temperatures for 15 minutes and was then placed on ice. An aliquot of the same preparation was kept on ice as a control. Each aliquot was then diluted further for assay of the ST activity being measured. Values for controls were determined at each temperature studied.

human liver DHEA ST [9] = target: T2, human liver DHEA ST; assay: Thermal inactivation of ST activity, DHEA ST; type: physicochemical; parameters: expressed in transfected cells; host or cells: COS-1 cells; high-speed supernatant; settings: preincubated 15 minutes; DHEA as substrate; HSS from COS-1 cells
Procedure: as §5

[10] = substrate: C[C@]12CC[C@H](O)CC1=CC[C@@H]1[C@@H]2CC[C@]2(C)C(=O)CC[C@@H]12; assay: Substrate kinetics (apparent Km) of ST activity, DHEA ST; type: biochemical, human; settings: other: substance is the substrate; DHEA ST cDNA expressed in COS-1 cells
Procedure: as §4

[11] = substrate: C[C@]12CC[C@@H]3c4ccc(O)cc4CC[C@H]3[C@@H]1CCC2=O; assay: as above; type: biochemical, human; settings: other: substance is the substrate; DHEA ST cDNA expressed in COS-1 cells
Procedure: as §4

NCCc1ccc(O)c(O)c1 [dopamine]
sulfation catalyzed by the protein encoded by the human liver EST cDNA (human liver EST [1]): not

C[C@]12CC[C@H](O)CC1=CC[C@@H]1[C@@H]2CC[C@]2(C)C(=O)CC[C@@H]12 [DHEA, dehydroepiandrosterone]
sulfation catalyzed by the protein encoded by the human liver EST cDNA (human liver EST [1]): 2.3 units/mg protein

O=[N+]([O-])c1cc(Cl)c(O)c(Cl)c1 [DCNP, 2,6-dichloro-4-nitrophenol]
IC50 (human liver EST [2]): 28 ± 2.9 µM
IC50 (human liver DHEA ST [3]): 40 ± 2.3 µM

C[C@]12CC[C@@H]3c4ccc(O)cc4CC[C@H]3[C@@H]1CCC2=O [estrone]
ST enzyme activity as sulfate acceptor substrate, compared with other substrates (human EST): greater ST enzyme activity
sulfation catalyzed by the protein encoded by the human liver EST cDNA (human liver EST [1]): 9 units/mg protein

[Cl-].[Na+] [NaCl]
increase of human liver EST activity (human liver EST [4]): 86%
peak activation of human liver DHEA ST (human liver DHEA ST [5]): 62%

O=[N+]([O-])c1ccc(O)cc1 [4-nitrophenol]
sulfation catalyzed by the protein encoded by the human liver EST cDNA (human liver EST [1]): 5 units/mg protein

B1: human liver EST (Homo sapiens) (protein)
chain: T1 sequence (P49888 1-294)
notes: expressed in transfected cells; host or cells: COS-1 cells, vector p91023(B); 100,000×g high-speed supernatant
Km [6]: 0.85 µM
Km [7]: 0.17 µM
temperature at which 50% inactivation of EST activity occurred (mean±SEM) (human liver EST [8]): 38.2±0.12 °C

B2: human liver DHEA ST (Homo sapiens) (protein)
chain: T2 sequence (Q06520 1-285)
notes: expressed in transfected cells; host or cells: COS-1 cells; high-speed supernatant
temperature at which 50% inactivation of DHEA ST activity occurred (mean±SEM) (human liver DHEA ST [9]): 41.1±0.10 °C
Km [10]: 2.6 µM
Km [11]: 3.1 µM
